# In patent publication US11208412B2 (DAEGU-GYEONGBUK MEDICAL INNOVATION FOUNDATION, priority 2017, dated 2021):
# Read-outs that look alike come from different tables or passages of the source.
# What was measured:
# Experiment in all cases: Kinase selectivity, DiscoverX scanMAX Kinase assay panel (% control)
# Format in all cases: binding
# [1] = target: T1, kinases of the scanMAX Kinase assay panel (Homo sapiens, UniProt P51813); conditions: BMX; 1 uM
# T1 construct: purchased DiscoverX Co. (contract measurement) scanMAX Kinase assay panel
# T1 sequence (P51813 1-675): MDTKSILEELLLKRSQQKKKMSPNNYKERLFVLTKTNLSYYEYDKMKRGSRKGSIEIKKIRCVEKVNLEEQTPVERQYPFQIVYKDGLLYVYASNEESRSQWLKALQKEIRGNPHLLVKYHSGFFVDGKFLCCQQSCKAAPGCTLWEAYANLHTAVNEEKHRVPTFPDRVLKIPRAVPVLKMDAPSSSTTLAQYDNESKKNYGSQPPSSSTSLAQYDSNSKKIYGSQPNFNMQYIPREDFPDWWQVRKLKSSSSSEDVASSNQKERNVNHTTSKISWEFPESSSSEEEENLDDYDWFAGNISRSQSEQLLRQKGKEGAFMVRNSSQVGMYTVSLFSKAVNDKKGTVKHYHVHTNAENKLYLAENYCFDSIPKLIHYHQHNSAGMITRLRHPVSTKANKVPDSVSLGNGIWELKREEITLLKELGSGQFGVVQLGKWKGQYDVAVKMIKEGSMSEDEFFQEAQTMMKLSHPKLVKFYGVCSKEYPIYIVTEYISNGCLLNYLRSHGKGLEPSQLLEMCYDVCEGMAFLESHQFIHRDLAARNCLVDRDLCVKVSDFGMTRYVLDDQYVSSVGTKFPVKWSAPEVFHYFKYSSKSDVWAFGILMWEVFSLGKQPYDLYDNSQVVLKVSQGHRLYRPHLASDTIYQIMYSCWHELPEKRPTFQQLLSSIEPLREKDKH
# Procedure, shortened: (§1)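 Each enzyme is treated with drug at 1 uM in DMSO, then signal is scaled between a positive control (0%) and DMSO (100%) to give % control. Kinases with % control under 35% are scored as inhibited.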
# [2] = target: T2, kinases of the scanMAX Kinase assay panel (Homo sapiens, UniProt Q15349); conditions: 1 uM in DMSO
# T2 construct: purchased DiscoverX Co. (contract measurement) scanMAX Kinase assay panel
# T2 sequence (Q15349 whole entry): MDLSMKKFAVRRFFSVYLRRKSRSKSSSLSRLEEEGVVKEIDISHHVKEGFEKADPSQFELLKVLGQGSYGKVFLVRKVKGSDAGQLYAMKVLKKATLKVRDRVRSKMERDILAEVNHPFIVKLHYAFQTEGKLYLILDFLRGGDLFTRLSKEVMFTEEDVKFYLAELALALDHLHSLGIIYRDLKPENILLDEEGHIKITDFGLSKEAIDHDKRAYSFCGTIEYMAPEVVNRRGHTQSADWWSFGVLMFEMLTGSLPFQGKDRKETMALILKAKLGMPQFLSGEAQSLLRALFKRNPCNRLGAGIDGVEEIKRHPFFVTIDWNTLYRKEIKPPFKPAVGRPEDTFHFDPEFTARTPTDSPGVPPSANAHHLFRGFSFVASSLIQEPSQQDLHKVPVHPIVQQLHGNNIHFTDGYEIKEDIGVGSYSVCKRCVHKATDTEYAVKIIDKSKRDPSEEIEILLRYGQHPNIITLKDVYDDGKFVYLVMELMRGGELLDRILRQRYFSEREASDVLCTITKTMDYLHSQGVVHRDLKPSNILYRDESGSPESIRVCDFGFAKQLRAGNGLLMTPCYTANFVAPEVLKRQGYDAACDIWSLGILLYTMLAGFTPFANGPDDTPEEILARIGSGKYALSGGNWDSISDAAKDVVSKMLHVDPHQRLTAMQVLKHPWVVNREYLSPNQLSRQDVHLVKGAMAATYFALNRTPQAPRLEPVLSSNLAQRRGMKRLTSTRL
# Procedure, shortened: as §1
# [3] = target: T3, kinases of the scanMAX Kinase assay panel (Homo sapiens, UniProt Q9UEW8); conditions: kinase STK39; 1 uM in DMSO
# T3 construct: purchased DiscoverX Co. (contract measurement) scanMAX Kinase assay panel
# Procedure, shortened: as §1
# [4] = target: T4, kinases of the scanMAX Kinase assay panel (Homo sapiens, UniProt P51957); conditions: NEK4; 1 uM
# T4 construct: purchased DiscoverX Co. (contract measurement) scanMAX Kinase assay panel
# T4 sequence (P51957 whole entry): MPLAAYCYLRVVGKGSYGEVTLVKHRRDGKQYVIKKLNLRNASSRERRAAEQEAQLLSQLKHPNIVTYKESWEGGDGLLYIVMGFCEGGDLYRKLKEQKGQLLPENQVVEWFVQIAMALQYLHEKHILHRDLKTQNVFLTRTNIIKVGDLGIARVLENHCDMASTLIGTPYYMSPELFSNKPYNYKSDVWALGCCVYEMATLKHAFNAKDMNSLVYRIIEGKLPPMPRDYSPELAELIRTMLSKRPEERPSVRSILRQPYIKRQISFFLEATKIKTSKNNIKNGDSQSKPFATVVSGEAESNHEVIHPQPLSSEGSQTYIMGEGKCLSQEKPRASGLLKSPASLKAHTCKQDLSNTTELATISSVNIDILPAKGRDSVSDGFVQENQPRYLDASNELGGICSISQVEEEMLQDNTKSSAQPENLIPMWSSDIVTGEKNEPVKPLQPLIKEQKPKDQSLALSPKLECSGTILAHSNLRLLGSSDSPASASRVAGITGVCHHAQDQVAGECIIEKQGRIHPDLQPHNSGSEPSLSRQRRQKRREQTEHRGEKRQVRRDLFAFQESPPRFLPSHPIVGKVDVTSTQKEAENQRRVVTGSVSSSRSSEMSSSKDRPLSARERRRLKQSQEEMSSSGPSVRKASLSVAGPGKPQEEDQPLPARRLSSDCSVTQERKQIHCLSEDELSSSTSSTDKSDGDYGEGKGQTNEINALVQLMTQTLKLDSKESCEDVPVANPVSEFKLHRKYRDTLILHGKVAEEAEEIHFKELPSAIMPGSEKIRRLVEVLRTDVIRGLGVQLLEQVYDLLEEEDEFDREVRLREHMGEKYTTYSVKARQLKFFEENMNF
# Procedure, shortened: as §1
# [5] = target: T5, kinases of the scanMAX Kinase assay panel (Homo sapiens, UniProt P16591); conditions: FER; 1 uM
# T5 construct: purchased DiscoverX Co. (contract measurement) scanMAX Kinase assay panel
# T5 sequence (P16591 whole entry): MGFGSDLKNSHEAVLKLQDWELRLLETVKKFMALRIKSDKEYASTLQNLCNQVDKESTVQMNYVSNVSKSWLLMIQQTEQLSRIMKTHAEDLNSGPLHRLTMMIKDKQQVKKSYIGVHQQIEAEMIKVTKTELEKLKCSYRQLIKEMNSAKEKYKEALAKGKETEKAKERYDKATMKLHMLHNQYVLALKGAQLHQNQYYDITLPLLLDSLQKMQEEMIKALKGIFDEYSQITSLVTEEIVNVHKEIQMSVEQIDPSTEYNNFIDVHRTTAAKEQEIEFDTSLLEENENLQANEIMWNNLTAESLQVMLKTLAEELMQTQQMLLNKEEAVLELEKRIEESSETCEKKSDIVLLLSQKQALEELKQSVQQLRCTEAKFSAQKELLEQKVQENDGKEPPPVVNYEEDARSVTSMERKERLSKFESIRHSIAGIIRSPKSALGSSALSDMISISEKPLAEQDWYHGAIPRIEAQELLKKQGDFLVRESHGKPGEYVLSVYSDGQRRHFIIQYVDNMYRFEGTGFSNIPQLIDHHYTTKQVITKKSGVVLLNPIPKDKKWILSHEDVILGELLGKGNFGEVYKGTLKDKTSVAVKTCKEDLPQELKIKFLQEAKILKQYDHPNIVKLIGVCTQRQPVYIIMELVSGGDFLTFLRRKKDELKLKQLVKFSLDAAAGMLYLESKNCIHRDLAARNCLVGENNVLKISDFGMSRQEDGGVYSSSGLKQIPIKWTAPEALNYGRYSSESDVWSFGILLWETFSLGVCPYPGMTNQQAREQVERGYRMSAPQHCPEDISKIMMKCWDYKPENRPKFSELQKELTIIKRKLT
# Procedure, shortened: as §1
# [6] = target: T6, kinases of the scanMAX Kinase assay panel (Homo sapiens, UniProt P10721, V559D/V654A); conditions: KIT(V559D, V654A); 1 uM
# T6 construct: purchased DiscoverX Co. (contract measurement) scanMAX Kinase assay panel
# T6 sequence (P10721 26-976 V559D/V654A): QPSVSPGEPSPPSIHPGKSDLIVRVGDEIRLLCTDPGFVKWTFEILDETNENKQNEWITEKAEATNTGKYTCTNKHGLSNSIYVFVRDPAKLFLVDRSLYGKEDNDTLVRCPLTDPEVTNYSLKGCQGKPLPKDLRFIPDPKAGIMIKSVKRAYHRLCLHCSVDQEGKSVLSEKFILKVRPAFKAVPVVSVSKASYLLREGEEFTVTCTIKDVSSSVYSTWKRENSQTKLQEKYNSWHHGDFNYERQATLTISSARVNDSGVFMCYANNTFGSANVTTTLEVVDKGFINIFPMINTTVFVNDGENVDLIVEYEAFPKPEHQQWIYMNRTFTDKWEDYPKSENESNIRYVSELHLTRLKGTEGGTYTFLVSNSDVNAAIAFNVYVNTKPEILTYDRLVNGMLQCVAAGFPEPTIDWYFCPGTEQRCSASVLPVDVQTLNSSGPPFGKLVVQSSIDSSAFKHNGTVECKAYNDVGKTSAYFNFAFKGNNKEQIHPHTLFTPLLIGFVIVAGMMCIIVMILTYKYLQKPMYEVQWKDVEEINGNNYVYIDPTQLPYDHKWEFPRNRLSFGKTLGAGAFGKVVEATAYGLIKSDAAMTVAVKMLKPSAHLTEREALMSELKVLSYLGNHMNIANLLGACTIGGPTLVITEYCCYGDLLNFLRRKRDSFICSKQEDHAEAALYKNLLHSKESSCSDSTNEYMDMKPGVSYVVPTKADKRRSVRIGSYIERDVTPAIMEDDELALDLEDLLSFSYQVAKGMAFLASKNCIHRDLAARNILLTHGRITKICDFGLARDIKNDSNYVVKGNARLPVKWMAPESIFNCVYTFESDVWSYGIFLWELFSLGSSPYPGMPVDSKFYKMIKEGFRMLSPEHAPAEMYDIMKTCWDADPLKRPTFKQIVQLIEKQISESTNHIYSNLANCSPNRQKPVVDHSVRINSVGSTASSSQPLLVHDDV
# Procedure, shortened: as §1
# [7] = target: T7, kinases of the scanMAX Kinase assay panel (Homo sapiens, UniProt Q9UKI8); conditions: kinase TLK1; 1 uM in DMSO
# T7 construct: purchased DiscoverX Co. (contract measurement) scanMAX Kinase assay panel
# T7 sequence (Q9UKI8 1-766): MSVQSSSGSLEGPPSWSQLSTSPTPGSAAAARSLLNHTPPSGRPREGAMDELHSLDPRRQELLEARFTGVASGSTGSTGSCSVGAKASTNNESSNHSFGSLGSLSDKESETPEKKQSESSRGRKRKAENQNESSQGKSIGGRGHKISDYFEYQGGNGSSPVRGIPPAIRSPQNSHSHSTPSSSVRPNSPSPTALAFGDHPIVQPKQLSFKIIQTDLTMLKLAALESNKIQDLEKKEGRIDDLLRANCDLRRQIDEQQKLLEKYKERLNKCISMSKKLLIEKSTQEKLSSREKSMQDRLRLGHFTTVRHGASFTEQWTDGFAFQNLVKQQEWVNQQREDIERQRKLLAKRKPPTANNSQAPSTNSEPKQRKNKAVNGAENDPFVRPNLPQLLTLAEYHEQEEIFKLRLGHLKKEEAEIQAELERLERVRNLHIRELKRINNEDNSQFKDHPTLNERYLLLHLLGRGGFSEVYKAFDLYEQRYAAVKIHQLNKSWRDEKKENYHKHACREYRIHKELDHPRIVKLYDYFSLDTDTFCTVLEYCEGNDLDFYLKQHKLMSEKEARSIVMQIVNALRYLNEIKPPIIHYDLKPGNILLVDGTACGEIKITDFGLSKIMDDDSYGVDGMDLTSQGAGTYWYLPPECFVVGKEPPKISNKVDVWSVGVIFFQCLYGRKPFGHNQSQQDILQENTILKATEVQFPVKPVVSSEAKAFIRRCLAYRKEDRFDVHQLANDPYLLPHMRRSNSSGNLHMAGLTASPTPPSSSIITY
# Procedure, shortened: as §1
# [8] = target: T8, kinases of the scanMAX Kinase assay panel (Homo sapiens, UniProt P45983); conditions: JNK1; 1 uM
# T8 construct: purchased DiscoverX Co. (contract measurement) scanMAX Kinase assay panel
# T8 sequence (P45983 whole entry): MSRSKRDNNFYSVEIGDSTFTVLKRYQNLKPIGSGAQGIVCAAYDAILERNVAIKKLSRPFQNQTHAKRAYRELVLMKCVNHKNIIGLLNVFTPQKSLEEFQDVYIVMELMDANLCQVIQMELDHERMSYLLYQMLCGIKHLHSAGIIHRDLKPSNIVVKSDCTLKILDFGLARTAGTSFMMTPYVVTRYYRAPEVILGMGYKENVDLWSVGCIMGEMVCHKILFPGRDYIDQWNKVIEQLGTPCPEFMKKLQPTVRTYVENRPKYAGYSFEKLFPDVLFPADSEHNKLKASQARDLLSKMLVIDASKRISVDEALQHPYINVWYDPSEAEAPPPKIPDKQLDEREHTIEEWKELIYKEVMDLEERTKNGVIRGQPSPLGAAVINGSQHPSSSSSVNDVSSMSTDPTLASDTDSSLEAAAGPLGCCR
# Procedure, shortened: as §1
# [9] = target: T9, kinases of the scanMAX Kinase assay panel (Homo sapiens, UniProt O94768); conditions: DRAK2; 1 uM
# T9 construct: purchased DiscoverX Co. (contract measurement) scanMAX Kinase assay panel
# T9 sequence (O94768 1-372): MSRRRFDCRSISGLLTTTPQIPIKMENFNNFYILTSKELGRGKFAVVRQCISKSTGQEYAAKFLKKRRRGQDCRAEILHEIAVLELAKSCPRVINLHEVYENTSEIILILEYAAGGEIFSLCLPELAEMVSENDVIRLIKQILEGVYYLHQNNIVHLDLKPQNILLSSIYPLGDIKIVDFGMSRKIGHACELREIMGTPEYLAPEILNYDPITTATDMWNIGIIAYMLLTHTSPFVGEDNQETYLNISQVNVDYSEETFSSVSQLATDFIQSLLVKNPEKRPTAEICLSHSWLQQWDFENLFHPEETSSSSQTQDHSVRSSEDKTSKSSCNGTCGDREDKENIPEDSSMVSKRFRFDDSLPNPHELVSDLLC
# Procedure, shortened: as §1
# [10] = target: T10, kinases of the scanMAX Kinase assay panel (Homo sapiens, UniProt P23443); conditions: kinase S6K1; 1 uM in DMSO
# T10 construct: purchased DiscoverX Co. (contract measurement) scanMAX Kinase assay panel
# T10 sequence (P23443 whole entry): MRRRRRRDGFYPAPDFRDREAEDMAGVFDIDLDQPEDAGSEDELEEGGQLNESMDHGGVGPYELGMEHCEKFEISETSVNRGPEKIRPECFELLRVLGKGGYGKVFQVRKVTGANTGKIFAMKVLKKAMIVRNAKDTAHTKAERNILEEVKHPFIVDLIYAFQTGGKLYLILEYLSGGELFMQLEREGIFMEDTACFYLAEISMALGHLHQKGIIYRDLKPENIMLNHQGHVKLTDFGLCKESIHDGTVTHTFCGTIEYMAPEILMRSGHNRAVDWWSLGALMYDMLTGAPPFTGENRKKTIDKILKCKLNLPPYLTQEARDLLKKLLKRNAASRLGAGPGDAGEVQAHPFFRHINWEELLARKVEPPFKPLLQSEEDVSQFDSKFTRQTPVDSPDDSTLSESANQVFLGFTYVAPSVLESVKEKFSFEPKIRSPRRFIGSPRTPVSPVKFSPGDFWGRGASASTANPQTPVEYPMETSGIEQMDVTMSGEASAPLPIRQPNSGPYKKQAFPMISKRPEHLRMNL
# Procedure, shortened: as §1
# [11] = kinase RSK3(Kin.Dom.1-N-terminal), read-out: % control, RSK3(Kin.Dom.1-N-terminal)
# [12] = kinase RSK3(Kin.Dom.2-C-terminal), read-out: % control, RSK3(Kin.Dom.2-C-terminal)
Structure (SMILES),remaining binding at 1 µM [1] [%],"remaining binding at 1 µM [2, 11] [%]","remaining binding at 1 µM [2, 12] [%]",remaining binding at 1 µM [3] [%],remaining binding at 1 µM [4] [%],remaining binding at 1 µM [5] [%],remaining binding at 1 µM [6] [%],remaining binding at 1 µM [7] [%],remaining binding at 1 µM [8] [%],remaining binding at 1 µM [9] [%],remaining binding at 1 µM [10] [%]
"CNc1nc(Nc2ccc(C(=O)N3CCOCC3)cc2OC)nc2[nH]cc(C#N)c12 [Example 1, 2-((2-methoxy-4-(morpholine-4-carbonyl)phenyl)amino)-4-(methylamino)-7H-pyrrolo[2,3-d]pyrimidine-5-carbonitrile]",93,90,23,14,75,15,76,95,0,13,70
"CC1(Nc2nc(Nc3cnn([C@H]4CCN(C5COC5)C[C@@H]4F)c3Cl)nc3[nH]cc(C#N)c23)CC1 [Example 52, 2-((5-chloro-1-((3S,4S)-3-fluoro-1-(oxetane-3-yl)piperidine-4-yl)-1H-pyrazole-4-yl)amino)((1-methylcyclopropyl)amino)-7H-pyrrolo[2,3-d]pyrimidine-5-carbonitrile]",39,4.3,28,0,100,0.25,0.9,78,0,1.2,52
"CCNc1nc(Nc2ccc(C(=O)N3CCC(N4CCOCC4)CC3)cc2OC)nc2[nH]cc(C(F)(F)F)c12 [Example 104, (4-((4-(ethylamino)-5-(trifluoromethyl)-7H-pyrrolo[2,3-d]pyrimidine-2-yl)amino)-3-methoxyphenyl)(4-morpholinopiperidine-1-yl)methanone]",94,100,66,30,100,3,94,72,25,15,80
